From ChEMBL document CHEMBL1201862, “PubChem BioAssay data set” (2004)
Calls of active or inactive are those of the source.

Tests used:
Caspase-3 = target: T1, Caspase-3 (Homo sapiens, UniProt P42574); assay: SAR Analysis of small molecule inhibitors of Sentrin-specific proteases (SENPs) using a Caspase-3 Selectivity assay. [Related pubchem assays (depositor defined):AID2540, AID2599, AID434973, AID489001]; assay type: functional
T1 sequence (P42574 whole entry): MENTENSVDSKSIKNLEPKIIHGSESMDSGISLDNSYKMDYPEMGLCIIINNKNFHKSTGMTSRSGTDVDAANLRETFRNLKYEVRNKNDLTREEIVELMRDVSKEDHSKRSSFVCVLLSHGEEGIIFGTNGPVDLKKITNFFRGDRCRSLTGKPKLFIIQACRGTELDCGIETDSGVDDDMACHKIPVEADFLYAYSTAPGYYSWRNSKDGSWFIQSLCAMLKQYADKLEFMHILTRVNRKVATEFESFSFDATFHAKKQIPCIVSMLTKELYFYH

[1] = target: T2, Sentrin-specific protease 7 (Homo sapiens, UniProt Q9BQF6); assay: SENP7 protease inhibitors, SAR follow-up, biochemical, luminescence (AID 504497); assay type: functional
T2 sequence (Q9BQF6 whole entry): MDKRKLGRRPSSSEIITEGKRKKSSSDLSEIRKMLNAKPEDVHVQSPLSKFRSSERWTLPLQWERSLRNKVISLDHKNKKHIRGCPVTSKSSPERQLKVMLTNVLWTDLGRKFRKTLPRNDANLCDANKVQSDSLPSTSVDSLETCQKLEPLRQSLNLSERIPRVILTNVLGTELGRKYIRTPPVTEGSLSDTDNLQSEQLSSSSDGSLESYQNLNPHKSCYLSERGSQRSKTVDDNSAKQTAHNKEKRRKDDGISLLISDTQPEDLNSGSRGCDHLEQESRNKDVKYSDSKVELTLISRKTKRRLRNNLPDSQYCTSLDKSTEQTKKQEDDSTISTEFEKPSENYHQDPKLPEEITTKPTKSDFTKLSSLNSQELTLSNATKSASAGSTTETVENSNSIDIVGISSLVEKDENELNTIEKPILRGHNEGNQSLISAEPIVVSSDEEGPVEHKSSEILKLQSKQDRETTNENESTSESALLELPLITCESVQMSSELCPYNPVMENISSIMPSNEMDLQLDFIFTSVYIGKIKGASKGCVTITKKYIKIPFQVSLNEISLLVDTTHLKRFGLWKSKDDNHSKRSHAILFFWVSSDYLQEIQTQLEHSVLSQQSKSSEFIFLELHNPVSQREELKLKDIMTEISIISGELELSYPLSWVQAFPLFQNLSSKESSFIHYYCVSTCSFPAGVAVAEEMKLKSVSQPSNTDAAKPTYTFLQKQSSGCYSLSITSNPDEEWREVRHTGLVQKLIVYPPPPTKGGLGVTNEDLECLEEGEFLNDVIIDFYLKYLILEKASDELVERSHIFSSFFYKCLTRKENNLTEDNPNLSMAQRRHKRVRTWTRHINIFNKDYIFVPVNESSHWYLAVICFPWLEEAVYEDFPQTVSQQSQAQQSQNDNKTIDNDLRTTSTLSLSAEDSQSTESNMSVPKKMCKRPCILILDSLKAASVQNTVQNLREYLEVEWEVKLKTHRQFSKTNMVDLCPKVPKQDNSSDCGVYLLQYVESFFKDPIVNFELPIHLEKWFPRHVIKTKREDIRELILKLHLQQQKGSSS

[2] = target: T3, Sentrin-specific protease 8 (Homo sapiens, UniProt Q96LD8); assay: SENP8 protease inhibitors, SAR follow-up, biochemical, luminescence (AID 504501); assay type: functional
T3 sequence (Q96LD8 whole entry): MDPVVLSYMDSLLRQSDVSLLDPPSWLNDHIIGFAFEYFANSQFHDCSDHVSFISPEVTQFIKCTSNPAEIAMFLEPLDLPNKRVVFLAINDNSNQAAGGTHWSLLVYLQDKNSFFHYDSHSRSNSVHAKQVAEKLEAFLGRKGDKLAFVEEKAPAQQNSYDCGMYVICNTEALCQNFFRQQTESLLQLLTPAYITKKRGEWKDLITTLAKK

[3] = target: T4, Sentrin-specific protease 6 (Homo sapiens, UniProt Q9GZR1); assay: SAR Analysis of small molecule inhibitors of Sentrin-specific protease 6 (SENP6) using a Luminescent assay. [Related pubchem assays (depositor defined):AID2582, AID2599]; assay type: functional
T4 sequence (Q9GZR1 whole entry): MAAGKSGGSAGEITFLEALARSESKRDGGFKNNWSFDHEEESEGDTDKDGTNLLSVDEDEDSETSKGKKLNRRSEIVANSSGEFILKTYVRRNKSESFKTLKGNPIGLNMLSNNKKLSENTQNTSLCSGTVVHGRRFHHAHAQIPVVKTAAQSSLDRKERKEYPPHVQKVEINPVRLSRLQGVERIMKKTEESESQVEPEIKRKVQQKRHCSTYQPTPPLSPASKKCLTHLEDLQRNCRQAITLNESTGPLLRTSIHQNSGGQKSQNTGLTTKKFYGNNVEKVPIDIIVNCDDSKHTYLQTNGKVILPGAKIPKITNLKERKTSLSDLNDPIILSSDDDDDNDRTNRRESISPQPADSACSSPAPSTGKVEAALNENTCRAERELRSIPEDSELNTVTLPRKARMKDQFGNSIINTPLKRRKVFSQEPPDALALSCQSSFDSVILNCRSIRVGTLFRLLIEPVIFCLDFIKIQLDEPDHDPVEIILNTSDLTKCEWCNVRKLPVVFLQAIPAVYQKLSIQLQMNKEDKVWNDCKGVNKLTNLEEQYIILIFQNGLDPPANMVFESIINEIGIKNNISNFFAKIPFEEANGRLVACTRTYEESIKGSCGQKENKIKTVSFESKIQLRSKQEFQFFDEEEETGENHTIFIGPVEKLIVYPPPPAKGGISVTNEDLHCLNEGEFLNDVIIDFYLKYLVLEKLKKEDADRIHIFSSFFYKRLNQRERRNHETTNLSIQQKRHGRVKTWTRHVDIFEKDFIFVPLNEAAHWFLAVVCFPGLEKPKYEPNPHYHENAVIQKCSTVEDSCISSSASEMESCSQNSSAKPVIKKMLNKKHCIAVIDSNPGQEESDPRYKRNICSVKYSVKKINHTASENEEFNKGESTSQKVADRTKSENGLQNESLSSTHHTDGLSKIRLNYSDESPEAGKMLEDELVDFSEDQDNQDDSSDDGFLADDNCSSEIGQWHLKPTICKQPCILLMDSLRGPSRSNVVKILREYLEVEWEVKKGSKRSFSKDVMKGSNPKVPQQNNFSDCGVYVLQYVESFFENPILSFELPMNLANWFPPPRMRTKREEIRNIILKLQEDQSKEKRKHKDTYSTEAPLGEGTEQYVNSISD

[4] = cytotoxicity toward DRD oncogenic fibroblasts, dose response, cell-based, non-viral oncogenic, luminescence (AID 1934); assay type: functional; settings: Homo sapiens
[5] = inhibitors of SNCA 5'UTR-driven reporter translation, confirmation, H4 neuroglioma cells, luminescence (AID 1988); assay type: functional, cell-based
BJ [6] = assay: cells; assay type: functional, cell-based; settings: Homo sapiens
[7] = off-target signal loss in HeLa-CEM21 co-culture – HeLa F-luc CTL cells, cherry-picked, counter-screen for HIV-1 Env fusion inhibitor project, dose response (AID 652040); assay type: functional, cell-based;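 also: potency for signal decrease marking cytotoxic or nonspecific inhibition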
[8] = target: T5, Ubiquitin-conjugating enzyme E2 N (Homo sapiens, UniProt P61088); assay type: functional
T5 sequence (P61088 whole entry): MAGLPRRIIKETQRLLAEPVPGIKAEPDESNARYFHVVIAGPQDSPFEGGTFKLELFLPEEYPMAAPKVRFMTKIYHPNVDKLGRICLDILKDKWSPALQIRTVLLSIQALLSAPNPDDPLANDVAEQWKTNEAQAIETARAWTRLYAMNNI

Beta Lactamase = Beta Lactamase (Pseudomonas aeruginosa, UniProt Q932Y6); assay: beta-lactamase reporter inhibitor potency, dose response, artefact control for TLR9-MyD88 binding inhibitor project, BLA reporter cells, FRET fluorescence (AID 588341); assay type: cell-based;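 also: cell based assay in CHO-K1 cells stably expressing beta-lactamase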
Beta Lactamase, sequence (Q932Y6 whole entry): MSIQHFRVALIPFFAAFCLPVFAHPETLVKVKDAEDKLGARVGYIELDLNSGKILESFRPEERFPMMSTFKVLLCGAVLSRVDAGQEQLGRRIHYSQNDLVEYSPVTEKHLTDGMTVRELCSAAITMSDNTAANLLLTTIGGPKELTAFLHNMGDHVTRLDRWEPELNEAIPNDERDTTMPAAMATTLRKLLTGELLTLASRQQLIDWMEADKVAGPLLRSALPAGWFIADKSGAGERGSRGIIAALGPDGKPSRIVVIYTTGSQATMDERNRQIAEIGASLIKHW

[9] = target: T6, Mitochondrial peptide methionine sulfoxide reductase (Bos taurus, UniProt P54149); assay type: functional;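 also: absorbance read-out, biochemical high-throughput dose-response screen for MsrA inhibitors, confirmatory; recombinant bovine MsrA coupled to E. coli TrxB with NADPH and selenocystamine; potency is for inhibitors of MsrA activity on DMSO substrate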
T6 sequence (P54149 whole entry): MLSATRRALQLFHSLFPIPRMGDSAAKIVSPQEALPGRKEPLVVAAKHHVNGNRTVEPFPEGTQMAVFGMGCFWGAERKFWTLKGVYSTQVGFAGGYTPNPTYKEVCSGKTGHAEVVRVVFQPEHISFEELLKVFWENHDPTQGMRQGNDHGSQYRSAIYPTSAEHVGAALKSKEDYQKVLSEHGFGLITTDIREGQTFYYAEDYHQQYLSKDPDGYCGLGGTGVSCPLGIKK

INS1 = assay: beta cell apoptosis inhibitors, cytokine rescue, dose response, luminescence, retest (AID 449756); assay type: functional, cell-based; settings: Rattus norvegicus;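 also: cell death triggered by IL-1 beta plus TNF-alpha plus IFN-gamma mixture; protective hits raise ATP signal compared with cytokine alone wells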
[10] = CEM21 lymphoblast cell cytotoxicity, dose response, cytotoxicity control for viral fusion inhibitor project, CellTiter-Glo luminescence, cherry-picked (AID 652042); assay type: functional, cell-based;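 also: potency for signal decrease meaning cytotoxicity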
[11] = Vero E6 cell cytotoxicity, dose response, cytotoxicity control for non-replicating M. tuberculosis project, secondary assay (AID 492998); assay type: functional, VeroE6; settings: Vero C1008
cells = assay type: functional
[12] = cytotoxicity in HEK-293T cells, dose response, cytotoxicity control for TCR NF-kB inhibitor project, luminescence, T-cell screen hits (AID 489026); assay type: functional, cell-based;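 also: cells exposed to compound about 14 hours before the viability readout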
BJ [13] = assay: cytotoxicity toward Ras-transformed BJeLR fibroblasts, dose response, cell-based, alamar blue fluorescence, cherrypicked samples (AID 2631); assay type: functional; settings: Homo sapiens;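 also: confirmatory dose-response assay in RAS-dependent BJ fibroblasts engineered with TERT, LT and ST, with cytotoxicity read by fluorescence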
[14] = inhibitors of HIV Env-driven cell fusion, dose response, cherry-pick (AID 652057); assay type: functional, cell-based
[15] = inhibitors of clade B AD8 Env fusion, dose response, cell-based, cherry-pick (AID 652062); assay type: functional;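 also: luciferase signal from cell-cell fusion driven by HIV-1 clade B AD8 Env; potency is for inhibitors of fusion seen as a drop in luminescence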
[16] = target: Aryl hydrocarbon receptor (Homo sapiens, UniProt P35869); assay: Luminescence-based cell-based high throughput dose response assay for activators of the Aryl Hydrocarbon Receptor (AHR). [Related pubchem assays: 2796 (Primary screen (AHR activators in singlicate)), 2845 (Confirmation screen (AHR activators in triplicate)), 434939 (Counterscreen (PXR activators in triplicate)), 2804 (Summary (AHR activators))]; assay type: ADME
Aryl hydrocarbon receptor, sequence (P35869 whole entry, the tested form may be a part): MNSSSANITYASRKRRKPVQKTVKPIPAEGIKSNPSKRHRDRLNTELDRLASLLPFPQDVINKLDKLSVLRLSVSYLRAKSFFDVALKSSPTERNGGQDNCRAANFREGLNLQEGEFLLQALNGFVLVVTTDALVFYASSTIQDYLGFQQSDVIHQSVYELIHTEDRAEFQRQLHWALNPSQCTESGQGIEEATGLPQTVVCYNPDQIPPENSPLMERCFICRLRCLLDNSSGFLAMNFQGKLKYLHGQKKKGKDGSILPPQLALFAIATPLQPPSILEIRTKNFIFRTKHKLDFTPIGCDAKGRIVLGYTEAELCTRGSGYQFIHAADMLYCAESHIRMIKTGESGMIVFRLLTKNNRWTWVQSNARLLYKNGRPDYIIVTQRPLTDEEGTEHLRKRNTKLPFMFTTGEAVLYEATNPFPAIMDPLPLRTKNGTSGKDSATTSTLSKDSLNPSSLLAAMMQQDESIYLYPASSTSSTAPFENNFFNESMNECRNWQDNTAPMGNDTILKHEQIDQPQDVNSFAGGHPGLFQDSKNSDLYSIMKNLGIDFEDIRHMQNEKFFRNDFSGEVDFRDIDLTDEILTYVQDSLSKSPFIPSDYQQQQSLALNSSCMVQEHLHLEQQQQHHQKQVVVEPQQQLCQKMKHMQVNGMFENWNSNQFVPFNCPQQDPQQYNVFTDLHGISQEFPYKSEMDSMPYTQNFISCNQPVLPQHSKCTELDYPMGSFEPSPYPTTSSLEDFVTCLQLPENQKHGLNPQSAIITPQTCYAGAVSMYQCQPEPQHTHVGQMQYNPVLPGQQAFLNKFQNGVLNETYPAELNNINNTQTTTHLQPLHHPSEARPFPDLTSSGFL

[17] = ZM109 Env clade C HIV-1 fusion inhibitors, dose response, HeLa effector, CEM target cells, luciferase, cherry-pick (AID 652058); assay type: functional, cell-based
[18] = Luminescence Cell-Based Dose Response HTS to Identify Inhibitors of 5'UTR Stem-Loop Driven Prion Protein mRNA Translation in H4 Neuroglioblastoma Cells. [Related pubchem assays: 1827 (Project Summary), 1813 (Primary HTS)]; assay type: functional
BJ [19] = assay: cytotoxicity toward BJ-TERT-LT-ST fibroblasts, dose response, cell-based, RAS-independent, luminescence (AID 1935); assay type: functional; settings: Homo sapiens;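 also: BJ fibroblasts immortalized with TERT plus LT and ST oncogenes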
[20] = target: T5, Ubiquitin-conjugating enzyme E2 N; assay type: functional; remark: listed apart in the source
[21] = inhibitors of firefly luciferase expression or activity, dose response, H4 neuroglioma cells, luminescence (AID 1990); assay type: functional, cell-based
[22] = THP-1 cell cytotoxicity, dose response, cytotoxicity control for non-replicating M. tuberculosis project (AID 489025); assay type: functional
Bcl-2-related protein A1 = target: T7, Bcl-2-related protein A1 (Mus musculus, UniProt Q07440); assay type: functional;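 also: confirmatory dose–response counterscreen on Bfl-1, used to check hits from a UBC13 polyubiquitin inhibitor campaign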
T7 sequence (Q07440 whole entry): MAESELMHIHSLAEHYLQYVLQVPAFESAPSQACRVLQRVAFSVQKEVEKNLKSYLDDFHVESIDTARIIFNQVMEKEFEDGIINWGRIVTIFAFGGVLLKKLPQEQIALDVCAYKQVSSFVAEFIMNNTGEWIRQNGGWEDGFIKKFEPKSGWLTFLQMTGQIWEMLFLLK

BJ [23] = assay: cytotoxicity toward BJ-TERT fibroblasts, dose response, cell-based, RAS-independent, luminescence (AID 1933); assay type: functional; settings: Homo sapiens
CHO = assay: cytotoxicity in TLR9-MyD88 CHO cells, dose response, cytotoxicity control for TLR9-MyD88 binding inhibitor project, cell-based, luminescence (AID 588339); assay type: functional, hamster; settings: Cricetulus griseus;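 also: CHO cells stably coexpressing TLR9 and MyD88 fusions from primary screen; compound exposure lasted 48 hours before viability readout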
[24] = HepG2 cell cytotoxicity, dose response, cytotoxicity control for non-replicating M. tuberculosis project (AID 489018); assay type: functional; settings: Mycobacterium tuberculosis

CCC(=O)c1ccc(OCC(=O)N(c2ccccc2)c2nc(-c3ccccc3)ns2)cc1
IC50 (Caspase-3): > 99 µM (inactive)
IC50 [1]: 32 µM (active)
IC50 [2]: 96.7 µM (active)
IC50 [3]: 65.1 µM (active)

COc1ccc2nc(C)cc(N/N=C/c3ccc(F)cc3)c2c1
EC50 [4]: 4.92 µM (active)
EC50 [5]: 9.29 µM (active)
EC50 (BJ [6]): 5.09 µM (inconclusive)
AC50 [7]: 6.09 µM (active)
IC50 [8]: 11.8 µM (active)
IC50 (Beta Lactamase): 2.13 µM (active)
IC50 [9]: 12.8 µM (inactive)
AC50 (INS1): 6.46 µM (active)
AC50 [10]: 2.65 µM (active)
CC50 [11]: 0.57 µM (active)
IC50 (cells): 3.12 µM (active)
IC50 [12]: > 80 µM (inactive)
EC50 (BJ [13]): 0.317 µM (active)
AC50 [14]: 8.26 µM (active)
AC50 [15]: 14.7 µM (active)
EC50 [16]: > 0.377 µM (active)
AC50 [17]: 8.14 µM (active)
EC50 [18]: > 120 µM (not active)
EC50 (BJ [19]): 2.66 µM (inconclusive)
IC50 [20]: 10.1 µM (active)
EC50 [21]: 8.44 µM (active)
CC50 [22]: 1.66 µM (active)
IC50 (Bcl-2-related protein A1): 17 µM (active)
EC50 (BJ [23]): 1.24 µM (inconclusive)
IC50 (CHO): 6.2 µM (active)
CC50 [24]: 15.2 µM (active)
